Measured values taken from patent publication US20230339949A1, “HETEROCYCLIC SUBSTITUTED FUSED y-CARBOLINE DERIVATIVE, PREPARATION METHOD THEREFOR, INTERMEDIATE THEREOF AND USE THEREOF” (SHUJING BIOPHARMA CO., LTD, priority 2020, published 2023).

Key:
[1] = molecular target: T1, D2 (CHO-K1/D2L/Gα15 cells) (Homo sapiens, UniProt P14416); experiment: Functional activity test on receptor (cryopreservation cells), calcium FLIPR, D2; type: cell-based; settings: for IC50: cryopreserved CHO-K1/D2L/Gα15 cells, calcium fluorescence (FLIPR), antagonist mode vs dopamine EC80; for D2/5-HT2A ratio: ratio of D2 IC50 to 5-HT2A IC50, Test Example 1
T1 construct: expressed in transfected cells; host or cells: CHO-K1 (CHO-K1/D2L/Gα15, cryopreserved cells)
T1 sequence (P14416 whole entry): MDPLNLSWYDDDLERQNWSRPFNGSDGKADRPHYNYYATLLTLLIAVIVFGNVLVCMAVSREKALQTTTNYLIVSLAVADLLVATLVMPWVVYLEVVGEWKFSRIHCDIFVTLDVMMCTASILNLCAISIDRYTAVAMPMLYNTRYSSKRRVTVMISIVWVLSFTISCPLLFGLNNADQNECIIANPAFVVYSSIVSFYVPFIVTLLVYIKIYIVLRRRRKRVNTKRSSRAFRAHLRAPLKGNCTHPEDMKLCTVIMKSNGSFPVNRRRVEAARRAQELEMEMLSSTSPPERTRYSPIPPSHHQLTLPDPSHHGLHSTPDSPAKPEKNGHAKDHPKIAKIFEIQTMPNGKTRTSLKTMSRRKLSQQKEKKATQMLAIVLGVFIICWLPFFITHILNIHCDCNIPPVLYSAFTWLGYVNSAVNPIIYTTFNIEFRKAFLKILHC
Method: Test Example 1: Functional Activity Test of Each Compound on Receptor (Cryopreservation Cells) [table] • (1) Cells was taken out from a liquid nitrogen tank, and the tube cap was loosened and inverted to make the liquid nitrogen flow out of the tube, then the cryopreservation tube was tightened. • (2) The cryopreservation tube was shaken rapidly at 37° C. […] • (1) Preparation of 250 mM probenecid solution: 1 mL experimental buffer was added into a tube containing 77 mg powder, and the powder was dissolved by vortex oscillation. • (2) Preparation of 2× fluorescent probe solution: A bottle of fluorescent probe dry powder was taken out to balance to room temperature, and 10 mL of experimental buffer solution and 200 μL of 250 mM probenecid solution were added thereto, and the bottle was scrolled and let stand for 5 minutes to ensure complete dissolution, and then the bottle was scrolled again. • a) Preparation of agonist compound plate (test of EC80): […] The compound to be tested was diluted 3-fold at 10 concentration points using experimental buffer in the compound plate (Greiner-781280), with an initial concentration of 3 μM and 30 μL per well; the antagonistic positive compounds (Spiperone and Ketanserin) were diluted 3-fold at 10 concentration points using experimental buffer, with an initial concentration of 1 μM and 30 μL per well. DMSO concentration was not higher than 3%. • (2) Cell preparation: Cells was taken out from the incubator, and 20 μL of prepared 2× fluorescent probe solution was added thereto, incubated at 37° C. for 50 minutes, then equilibrated at room temperature for 10 minutes. • a) The cell plate and agonist compound plate were put into the instrument, and the program of reading the plate was run. • b) 10 μL was transferred from the agonist compound plate to the cell plate, and fluorescence signal was read. • c) The EC80 of agonist was calculated using Screenworks software and 6×EC80 concentration was prepared for later use.

[2] = tested on: DOI-induced head-shaking behavior; experiment: DOI-induced head-shaking behavior in mice; type: in vivo, ICR mice; settings: Mus musculus; male ICR mice, single gavage dose 1 h before DOI 1 mg/kg i.p., head-shakes counted 0-20 min; read-out: ED50 (half effective dose)
Method: The efficacy of the compounds of the present disclosure was evaluated by the mice model of head-shaking behavior induced by intraperitoneal injection of (±) DOI (a hallucinogenic agent usually used to replicate anti-schizophrenic animal model).
Experimental animals: ICR mice, male, 8 mice/group, Spelford (Beijing) Biotechnology Co., Ltd.
Preparation of drug: the test compounds were taken, and solvent was added, and ultrasonication was performed.
Administration route and method: oral gavage administration, 10 mL/kg (body weight).
Administration frequency and duration: single dose.
Animals were stratified by body weight and then randomly divided into blank group, model group, and administration groups, and detailed information of administration is shown in the following table.
Mice were stratified according to body weight and then randomly divided into model group, blank group and each administration group. One hour after the animals were gavage administration of the solvent or drugs, they were placed in a beaker (13 cm in diameter, 19 cm in height) with fresh padding, and the model drug DOI was injected intraperitoneally at a dose of 1 mg/kg. The times of head-shaking were recorded within 0-20 minutes after DOI was injected intraperitoneally.
Head-shaking behavior is defined as rapid rotational twitch of mouse's head or wet dog-like shaking, which should be different from normal hair grooming or inquiry behavior.
The experimental data were expressed as x±SD, and SPSS statistical software was used to test the homogeneity of variance. If the variance was homogeneous, single factor analysis of variance was performed, and Dunnett t test is used for pairwise comparison. The ED50 was calculated by nonlinear fitting with GraphPad Primis5 software.

## CN1C(=O)CN2c3c1cccc3C1(C)CN(CCCC(=O)c3ccc(F)cc3)CCC21 (centres unmarked) [Embodiment 1, 8-(4-(4-fluorophenyl)-4-oxobutyl)-3,6b-dimethyl-6b,7,8,9,10,10a-hexahydro-1H-pyrido[3′,4′:4,5]pyrrolo[1,2,3-de]quinoxalin-2(3H)-one]
[1]
  IC50: 662 nM
  D2/5-HT2A ratio: 13.09

## CN1C(=O)CN2c3c1cccc3[C@]1(C)CN(CCCC(=O)c3ccc(F)cc3)CC[C@H]21 [Embodiment 1-A, (6bR,10aS)-8-(4-(4-fluorophenyl)-4-oxobutyl)-3,6b-dimethyl-6b,7,8,9,10,10a-hexahydro-1H-pyrido[3′,4′:4,5]pyrrolo [1,2,3-de]quinoxalin-2(3H)-one]
[2]
  ED50: 0.024 mg/kg

## CN1CCN2c3c(cccc31)[C@@H]1CN(CCCC(=O)c3ccc(F)cc3)CC[C@@H]12 [ITI-007, Lumateperone, reference compound]
[1]
  IC50: 569 nM
  D2/5-HT2A ratio: 4.75
